System: 610 metabolites from 63 biochemical pathways
Assay: Targeted broad-spectrum plasma metabolomic analysis (LC-MS/MS), paired pre-infusion vs post-infusion (2-days and 6-weeks)
Format: in vivo, human
Protocol: Targeted, broad-spectrum, plasma metabolomic analysis of 610 metabolites from 63 biochemical pathways was performed by high performance liquid chromatography and tandem mass spectrometry (LC-MS/MS) on the samples collected from patients in Example 1. Venous blood was collected between the hours of 8 am and 5 pm, at least 3 hours after the last meal, into lithium-heparin vacutainer tubes (BD #367884). Plasma was separated by centrifugation at 900 g×10 minutes at room temperature within one hour of collection. The resulting fresh lithium-heparin plasma was transferred to labeled 1.2 ml or 2.0 ml externally threaded cryotubes with a minimum headspace air gap for storage at −80° C. for analysis. Samples were analyzed on an AB SCIEX QTRAP 5500 triple quadrupole mass spectrometer equipped with a Turbo V electrospray ionization (ESI) source, Shimadzu LC-20A UHPLC system, and a PAL CTC autosampler. Typically, 90 μl of plasma was thawed on ice and transferred to a 1.7 ml Eppendorf tube. Five (5.0) μl of a cocktail containing 25-35 commercial stable isotope internal standards, and 5.0 μl of 57 stable isotope internal standards that were custom-synthesized in E. coli NCM3722, Caenorhabditis elegans N2, and Komagataella phaffii (ATCC 76273; formerly known as Pichia pastoris) by metabolic labeling with 13C-glucose and 13C-bicarbonate, were added, mixed, and incubated for 10 min at 20° C. to permit small molecules and vitamins in the internal standards to associate with plasma binding proteins. Macromolecules (protein, DNA, RNA, glycans, etc.) were precipitated by extraction with 4 volumes (400 μl) of cold (−20° C.), acetonitrile:methanol (50:50) (LCMS grade, Cat #LC015-2.5 and GC230-4, Burdick & Jackson, Honeywell), vortexed vigorously, and incubated on crushed ice for 10 min, then removed by centrifugation at 16,000 g×10 min at 4° C. The supernatants containing the extracted metabolites and internal standards in the resulting 40:40:20 solvent mix of acetonitrile:methanol:water were transferred to labeled cryotubes and stored at −80° C. for LCMS/MS analysis.
LC-MS/MS analysis was performed by scheduled multiple reaction monitoring (sMRM) under Analyst v1.6.2 software control in both negative and positive mode with rapid polarity switching (50 ms). Nitrogen was used for curtain gas (set to 30), collision gas (set to high), ion source gas 1 and 2 (set to 35). The source temperature was 500° C. Spray voltage was set to −4500 V in negative mode and 5500 V in positive mode. The values for Q1 and Q3 mass-to-charge ratios (m/z), declustering potential (DP), entrance potential (EP), collision energy (CE), and collision cell exit potential (CXP) were determined and optimized for each MRM for each metabolite. Ten microliters of extract was injected by PAL CTC autosampler via a 10 μl stainless steel loop into a 250 mm×2.0 mm, 4 μm polymer based NH2 HPLC column (Asahipak NH2P-40 2E, Showa Denko America, Inc., NY) held at 25° C. for chromatographic separation. The mobile phase was solvent A: 95% water with 20 mM (NH4)2CO3 (Sigma, Fluka Cat #74415-250G-F), 5% acetonitrile, and 38 mM NH4OH (Sigma, Fluka Cat #17837-100ML), final pH 9.75; solvent B: 100% acetonitrile. Separation was achieved using the following gradient: 0-3.5 min: 95% B, 3.6-8 min: 85% B, 8.1-13 min: 75% B, 13.5-35 min: 0% B, 36-46 min: 95% B, 46.1 min: end. The flow rate was 200 μl/min. Pump pressures ranged from 920-2600 psi over the course of the gradient. All the samples were kept at 4° C. during analysis. The chromatographic peaks were identified using MultiQuant (v3.0, Sciex), confirmed by manual inspection, and the peak areas integrated. […]

[1] = Tyrosine and Phenylalanine Metabolism, 2-days
[2] = Tyrosine and Phenylalanine Metabolism, 6-weeks
[3] = Vitamin C (Ascorbate) Metabolism, 6-weeks
[4] = Vitamin D (Calciferol) Metabolism, 2-days
[5] = cis-aconitic acid, plasma, 6-weeks
[6] = lsovalerylglycine, plasma, 6-weeks
[7] = p-Hydroxyphenylacetic acid, plasma, 6-weeks
[8] = plasma, 2-days after infusion vs pre-infusion, Amino Acid Metabolism (not otherwise covered)
[9] = plasma, 2-days after infusion vs pre-infusion, Amino-Sugar, Galactose, & Non-Glucose Metabolism
[10] = plasma, 2-days after infusion vs pre-infusion, Bile Salt Metabolism
[11] = plasma, 2-days after infusion vs pre-infusion, Bioamines and Neurotransmitter Metabolism
[12] = plasma, 2-days after infusion vs pre-infusion, Branch Chain Amino Acid Metabolism
[13] = plasma, 2-days after infusion vs pre-infusion, Cardiolipin Metabolism
[14] = plasma, 2-days after infusion vs pre-infusion, Ceramide Metabolism

`Cc1ccc(C(=O)Nc2ccc(S(=O)(=O)O)c3cc(S(=O)(=O)O)cc(S(=O)(=O)O)c23)cc1NC(=O)c1cccc(NC(=O)Nc2cccc(C(=O)Nc3cc(C(=O)Nc4ccc(S(=O)(=O)O)c5cc(S(=O)(=O)O)cc(S(=O)(=O)O)c45)ccc3C)c2)c1` [Suramin, suramin] was tested, and the Increased [1] was 1, the “Observed Hits in the Top 61 Metabolites” value [1] was 1 and the Decreased [2] was 0. For the same molecule, the “Fold Enrichment (Obs/Exp)” value [2] was 6.0, the “Fraction of Impact (VIP Score) Explained (% of 94.6)” value [2] was 4% and the “Impact (Sum VIP Score)” value [2] was 3.7. The Increased [2] was 2, the “Observed Hits in the Top 48 Metabolites” value [2] was 2 and the “Linear Ratio” value (Uridine, plasma, 6-weeks) was 1.244. The “VIP Score” value (Uridine, plasma, 6-weeks) was 1.764, the “Z Abs” value (Uridine, plasma, 6-weeks) was 0.928 and the “Z Score” value (Uridine, plasma, 6-weeks) was 0.928. For the same molecule, the Decreased [3] was 0, the “Fold Enrichment (Obs/Exp)” value [3] was 4.5 and the “Fraction of Impact (VIP Score) Explained (% of 94.6)” value [3] was 2%. The “Impact (Sum VIP Score)” value [3] was 2.0, the Increased [3] was 1 and the “Observed Hits in the Top 48 Metabolites” value [3] was 1. For the same molecule, the Decreased [4] was 1, the “Fold Enrichment (Obs/Exp)” value [4] was 2.4 and the “Fraction of Impact (VIP Score) Explained (% of 119.7)” value [4] was 3%. For the same molecule, the “Impact (Sum VIP Score)” value [4] was 3.1, the Increased [4] was 0 and the “Observed Hits in the Top 61 Metabolites” value [4] was 1. The “Linear Ratio” value [5] was 1.278, the “VIP Score” value [5] was 1.852 and the “Z Abs” value [5] was 0.928. The “Z Score” value [5] was 0.928, the “metabolites significantly changed by suramin (total)” value (day 2) was 61 and the “Linear Ratio” value [6] was 2.027. For the same molecule, the “VIP Score” value [6] was 1.888, the “Z Abs” value [6] was 0.901 and the “Z Score” value [6] was 0.901. The “Linear Ratio” value [7] was 1.306, the “VIP Score” value [7] was 2.203 and the “Z Abs” value [7] was 2.226. The “Z Score” value [7] was 2.226, the “1-Methyl-adenine (1-MA)” value (plasma) was “increased” and the AICAR (plasma) was “increased”. The cAMP (plasma) was “decreased”, the dGDP (plasma) was “decreased” and the “Linear Ratio, Alanine” value [8] was 1.193. For the same molecule, the “VIP Score, Alanine” value [8] was 1.776, the “Z Abs, Alanine” value [8] was 1.066 and the “Z Score, Alanine” value [8] was 1.066. For the same molecule, the “Linear Ratio, Myoinositol” value [9] was 1.286, the “VIP Score, Myoinositol” value [9] was 1.645 and the “Z Abs, Myoinositol” value [9] was 0.785. The “Z Score, Myoinositol” value [9] was 0.785, the “Linear Ratio, Chenodeoxyglycocholic acid” value [10] was 2.787 and the “Linear Ratio, Glycocholic acid” value [10] was 2.344. For the same molecule, the “Linear Ratio, Taurocholic acid” value [10] was 2.183, the “Linear Ratio, Taurodeoxycholic acid Pool” value [10] was 2.614 and the “VIP Score, Chenodeoxyglycocholic acid” value [10] was 3.171. The “VIP Score, Glycocholic acid” value [10] was 3.090, the “VIP Score, Taurocholic acid” value [10] was 2.615 and the “VIP Score, Taurodeoxycholic acid Pool” value [10] was 3.048. For the same molecule, the “Z Abs, Chenodeoxyglycocholic acid” value [10] was 1.610, the “Z Abs, Glycocholic acid” value [10] was 2.020 and the “Z Abs, Taurocholic acid” value [10] was 1.102. The “Z Abs, Taurodeoxycholic acid Pool” value [10] was 1.326, the “Z Score, Chenodeoxyglycocholic acid” value [10] was 1.610 and the “Z Score, Glycocholic acid” value [10] was 2.020. For the same molecule, the “Z Score, Taurocholic acid” value [10] was 1.102, the “Z Score, Taurodeoxycholic acid Pool” value [10] was 1.326 and the “Linear Ratio, Dopamine” value [11] was 0.877. The “Linear Ratio, L-Glutamic acid” value [11] was 0.797, the “VIP Score, Dopamine” value [11] was 1.653 and the “VIP Score, L-Glutamic acid” value [11] was 1.641. For the same molecule, the “Z Abs, Dopamine” value [11] was 0.642, the “Z Abs, L-Glutamic acid” value [11] was 0.619 and the “Z Score, Dopamine” value [11] was −0.642. For the same molecule, the “Z Score, L-Glutamic acid” value [11] was −0.619, the “Linear Ratio, Isovalerylglycine” value [12] was 1.951 and the “Linear Ratio, L-Isoleucine” value [12] was 1.094. The “Linear Ratio, L-Valine” value [12] was 1.165, the “Linear Ratio, Tiglylglycine” value [12] was 1.141 and the “VIP Score, Isovalerylglycine” value [12] was 1.783. The “VIP Score, L-Isoleucine” value [12] was 2.136, the “VIP Score, L-Valine” value [12] was 1.808 and the “VIP Score, Tiglylglycine” value [12] was 1.562. The “Z Abs, Isovalerylglycine” value [12] was 0.852, the “Z Abs, L-Isoleucine” value [12] was 0.815 and the “Z Abs, L-Valine” value [12] was 0.749. For the same molecule, the “Z Abs, Tiglylglycine” value [12] was 0.657, the “Z Score, Isovalerylglycine” value [12] was 0.852 and the “Z Score, L-Isoleucine” value [12] was 0.815. For the same molecule, the “Z Score, L-Valine” value [12] was 0.749, the “Z Score, Tiglylglycine” value [12] was 0.657 and the “Linear Ratio, CL(18:2/18:2/18:2/18:1)” value [13] was 1.102. The “Linear Ratio, CL(18:2/18:2/18:2/18:2)” value [13] was 1.181, the “Linear Ratio, Ceramide(d18:1/18:2)” value [14] was 1.337 and the “VIP Score, Ceramide(d18:1/18:2)” value [14] was 1.521.
